Results published in PubChem BioAssay AID226 (DTP/NCI, 2004).
Several values for one entry are separate records, joined by “and”; a condition that tells them apart may be missing. Equal values may be shown once. Inconclusive results and toxic doses are left out. How the source made its calls: active means survival T/C of 150% or more; inactive means T/C below 125% in these data.

Tested on: B6C3F1 mice, intracerebral ependymoblastoma, median survival T/C
Assay: NCI In Vivo Anticancer Drug Screen. Data for tumor model Ependymoblastoma (intracerebral) in B6C3F1 mice
Conditions: endpoint: median survival time, higher = longer survival
Method: The antitumor activity of compounds was measured in mice bearing transplantable tumors. Survival or tumor size were measured and the results are expressed as the measurement made in the treated group (T) divided by the measurement made in the vehicle treated control group (C). The tumor model used in this assay is Ependymoblastoma (intracerebral) in B6C3F1 mice

[1] = dose: 25.0 mg/kg/injection, schedule: Q01DX005 (ip), vehicle: saline with Tween-80
[2] = dose: 50.0 mg/kg/injection, schedule: Q01DX005 (ip), vehicle: saline with Tween-80

Measured: T/C

CCCN(C)C(=O)N(CCCl)N=O
inactive: dose: 19.4 mg/kg/injection, schedule: Q01DX001 (ip), vehicle: DMSO 116 % of control | dose: 125.0 mg/kg/injection, schedule: Q01DX001 (ip), vehicle: saline + alcohol 110 % of control
active: dose: 31.3 mg/kg/injection, schedule: Q01DX001 (ip), vehicle: saline + alcohol 320 % of control | dose: 32.4 mg/kg/injection, schedule: Q01DX001 (ip), vehicle: DMSO 169 % of control | dose: 54.0 mg/kg/injection, schedule: Q01DX001 (ip), vehicle: DMSO 239 % of control | dose: 62.5 mg/kg/injection, schedule: Q01DX001 (ip), vehicle: saline + alcohol 324 % of control | dose: 90.0 mg/kg/injection, schedule: Q01DX001 (ip), vehicle: DMSO 368 % of control | dose: 150.0 mg/kg/injection, schedule: Q01DX001 (ip), vehicle: DMSO 366 % of control | dose: 250.0 mg/kg/injection, schedule: Q01DX001 (ip), vehicle: DMSO 365 % of control

C(COCCOCC1CO1)OCCOCC1CO1 (configuration not stated)
inactive: dose: 25.0 mg/kg/injection, schedule: Q01DX005 (ip), vehicle: saline 100 % of control and 118 % of control | dose: 50.0 mg/kg/injection, schedule: Q01DX005 (ip), vehicle: saline 97 % of control and 121 % of control | dose: 100.0 mg/kg/injection, schedule: Q01DX005 (ip), vehicle: saline 97 % of control and 100 % of control | dose: 200.0 mg/kg/injection, schedule: Q01DX005 (ip), vehicle: saline 105 % of control

CC(C)(N)C(=O)O
inactive: dose: 12.5 mg/kg/injection, schedule: Q01DX005 (ip), vehicle: saline with Tween-80 103 % of control | [1] 114 % of control | [2] 114 % of control | dose: 100.0 mg/kg/injection, schedule: Q01DX005 (ip), vehicle: saline with Tween-80 105 % of control | dose: 200.0 mg/kg/injection, schedule: Q01DX005 (ip), vehicle: saline with Tween-80 97 % of control | dose: 400.0 mg/kg/injection, schedule: Q01DX005 (ip), vehicle: saline with Tween-80 95 % of control | dose: 800.0 mg/kg/injection, schedule: Q01DX005 (ip), vehicle: saline with Tween-80 98 % of control | dose: 1600.0 mg/kg/injection, schedule: Q01DX005 (ip), vehicle: saline with Tween-80 116 % of control

CCCC(=O)OCC1OC(n2cnc3c(=S)nc[nH]c32)C(OC(=O)CCC)C1OC(=O)CCC (configuration not stated)
inactive: [1] 103 % of control | [2] 105 % of control

CC(CN1CC(=O)NC(=O)C1)N1CC(=O)NC(=O)C1 (configuration not stated)
inactive: dose: 8.0 mg/kg/injection, schedule: Q01DX001 (ip), vehicle: Klucel (hydroxypropylcellulose) (HPC) 101 % of control and 102 % of control | dose: 16.0 mg/kg/injection, schedule: Q01DX001 (ip), vehicle: Klucel (hydroxypropylcellulose) (HPC) 104 % of control and 86 % of control | dose: 32.0 mg/kg/injection, schedule: Q01DX001 (ip), vehicle: Klucel (hydroxypropylcellulose) (HPC) 101 % of control and 102 % of control | dose: 64.0 mg/kg/injection, schedule: Q01DX001 (ip), vehicle: Klucel (hydroxypropylcellulose) (HPC) 103 % of control and 109 % of control | dose: 128.0 mg/kg/injection, schedule: Q01DX001 (ip), vehicle: Klucel (hydroxypropylcellulose) (HPC) 99 % of control and 103 % of control

O=NN(CCF)C(=O)NC1CCC(=O)NC1=O (configuration not stated)
active: dose: 5.18 mg/kg/injection, schedule: Q01DX005 (ip), vehicle: Klucel (hydroxypropylcellulose) (HPC) 186 % of control | dose: 8.64 mg/kg/injection, schedule: Q01DX005 (ip), vehicle: Klucel (hydroxypropylcellulose) (HPC) 232 % of control | dose: 14.4 mg/kg/injection, schedule: Q01DX005 (ip), vehicle: Klucel (hydroxypropylcellulose) (HPC) 357 % of control | dose: 24.0 mg/kg/injection, schedule: Q01DX005 (ip), vehicle: Klucel (hydroxypropylcellulose) (HPC) 357 % of control
